Literature values in patent US20200069728A1, “HYPOCHLOROUS ACID BASED EYE DROP AND OPHTHALMIC COMPOSITION” (priority 2018, published 2020).

Conditions: non-stabilized hypochlorous acid, background statement

- potency lost per day: 1-2%
SMILES: OCl [hypochlorous acid]
